In PubChem BioAssay (NCI) one finds TGI data, which are given here for 13 compounds.

Some test systems named below: BT-549 breast; CAKI-1 renal; HCC-2998 colon; LOX IMVI melanoma; MDA-MB-231 breast; MDA-N; SF-295 CNS; SK-OV-3 ovarian; SNB-75 CNS; U251 CNS.
Assay in all cases: NCI anticancer screen, dose series, 48 h

Structures are written as SMILES.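 Protocol summary: plate cells (96-well), add compound at 5 concentrations, incubate 48 h, interpolate endpoints linearly. At the TGI there is no net growth.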 A value given as a limit tells only on which side of the number the result lay.

With `CC1=C(C)SC(=C2Sc3c(n(C)c(=O)[nH]c3=O)S2)S1`, the TGI in the assay on BT-549 breast, in the assay on CAKI-1 renal, with HCC-2998 colon, in the assay on LOX IMVI melanoma, in the assay on MDA-MB-231 breast and in the assay with MDA-N was > 100 µM throughout. Also, the TGI in the assay with SF-295 CNS, with SK-OV-3 ovarian, in the assay with SNB-75 CNS and in the assay with U251 CNS was > 100 µM throughout.
As to `CC(=O)O[C@H]1CC[C@H]2[C@@H]3CCc4cc(O)c(I)cc4[C@H]3CC[C@]12C`, the TGI in the assay on BT-549 breast came to 29.4 µM; with CAKI-1 renal it was 29.7 µM; with HCC-2998 colon, 32.2 µM; in the assay on LOX IMVI melanoma, 30.2 µM; in the assay with MDA-MB-231 breast, 12.3 µM; in the assay with MDA-N, 31.3 µM. Besides, the TGI with SF-295 CNS turned out to be 28.6 µM; in the assay on SK-OV-3 ovarian, 29.1 µM; in the assay with SNB-75 CNS, 26.2 µM; with U251 CNS, 27.8 µM.
For `O=C1CC2[C@@H](N3CCCC3)CCC(N1Cc1ccccc1)C2(O)O` (stereo not given in full), the TGI with BT-549 breast, with CAKI-1 renal, with HCC-2998 colon, in the assay with LOX IMVI melanoma, with MDA-MB-231 breast and in the assay on MDA-N was > 100 µM each time. In addition, the TGI in the assay with SF-295 CNS, with SK-OV-3 ovarian and in the assay on U251 CNS was > 100 µM in each case.
As to `Cn1c(=O)n(-c2c3ccccc3c(Cl)c3ccccc23)n(C(C)(C)C)c1=O`, the TGI in the assay on BT-549 breast, with CAKI-1 renal, in the assay on HCC-2998 colon, in the assay with LOX IMVI melanoma, in the assay on MDA-MB-231 breast and in the assay with MDA-N was > 100 µM each time. The TGI with SF-295 CNS is > 100 µM; with SK-OV-3 ovarian it was > 100 µM; with SNB-75 CNS it was 43.9 µM; in the assay with U251 CNS, > 100 µM.
As to `O=C(NNC(=S)Nc1ccccc1)C12CC3CC(CC(C3)C1)C2`, the TGI is 60.8 µM with BT-549 breast; > 100 µM with CAKI-1 renal; > 95.7 µM with HCC-2998 colon; > 91.9 µM with LOX IMVI melanoma; > 100 µM with MDA-MB-231 breast; > 100 µM in the assay with MDA-N. The TGI in the assay with SF-295 CNS was > 100 µM; in the assay on SK-OV-3 ovarian, > 100 µM; in the assay with SNB-75 CNS it was > 92.9 µM; in the assay with U251 CNS, > 100 µM.
For `CC(=O)OCC1OC(n2c(C)c(N=Nc3ccc(C)cc3)c(C)c(C#N)c2=S)C(OC(C)=O)C(OC(C)=O)C1OC(C)=O` (stereo not given), the TGI in the assay with BT-549 breast, in the assay with CAKI-1 renal, in the assay with HCC-2998 colon, with LOX IMVI melanoma, in the assay with MDA-MB-231 breast and in the assay with MDA-N was > 100 µM throughout. Also, the TGI in the assay with SF-295 CNS, in the assay with SK-OV-3 ovarian, in the assay on SNB-75 CNS and in the assay with U251 CNS was > 100 µM throughout.
With `Cc1ccc2c(c1)C(=O)/C(=C1/CCc3ccc(C)cc31)C2`, the TGI in the assay on BT-549 breast, in the assay on HCC-2998 colon, with LOX IMVI melanoma, in the assay with MDA-MB-231 breast, with MDA-N and with SF-295 CNS was > 100 µM throughout. The TGI is > 100 µM in the assay with SK-OV-3 ovarian, 71.1 µM in the assay with SNB-75 CNS and > 100 µM in the assay with U251 CNS.
For `Cc1cc(S(=O)(=O)Nc2nc(N)n(-c3cnc4ccccc4n3)n2)c(S)cc1Cl`, the TGI with BT-549 breast, in the assay with CAKI-1 renal, in the assay on HCC-2998 colon, in the assay with LOX IMVI melanoma, in the assay on MDA-MB-231 breast and in the assay on MDA-N was > 100 µM throughout. For the same compound, the TGI in the assay on SK-OV-3 ovarian, with SNB-75 CNS and in the assay on U251 CNS was > 100 µM throughout.
Take `O=C1c2ccccc2C(=O)c2c(OCC3CO3)ccc(OCC3CO3)c21` (stereo not given): the TGI with BT-549 breast is 15.5 µM; with CAKI-1 renal it was 10.6 µM; in the assay with HCC-2998 colon, > 46.3 µM; with LOX IMVI melanoma, 0.515 µM; in the assay with MDA-MB-231 breast, > 34 µM; with MDA-N, 23.8 µM. Moreover, the TGI in the assay on SF-295 CNS is 11.8 µM; with SK-OV-3 ovarian, 36.2 µM; in the assay with SNB-75 CNS, 29.9 µM; in the assay on U251 CNS, 12.1 µM.
For the compound `CC(=O)OCc1nc(C#N)c(N)o1`, the TGI in the assay on BT-549 breast, with CAKI-1 renal, in the assay with HCC-2998 colon, with LOX IMVI melanoma, with MDA-MB-231 breast and with MDA-N was > 100 µM throughout. For the same compound, the TGI with SF-295 CNS, with SK-OV-3 ovarian and in the assay with U251 CNS was > 100 µM each time.
On to `O=S(=O)(O)c1cc(S(=O)(=O)O)c2c(N=Nc3cccc4ccccc34)c(O)ccc2c1`, for which the TGI with BT-549 breast, in the assay with CAKI-1 renal, in the assay on HCC-2998 colon, with LOX IMVI melanoma, in the assay with MDA-MB-231 breast and with MDA-N was > 100 µM in each case. In addition, the TGI in the assay on SF-295 CNS, with SK-OV-3 ovarian, with SNB-75 CNS and with U251 CNS was > 100 µM in each case.
As for `COC(=O)CCc1ccc2c(c1)CCC2`, the TGI with BT-549 breast, with CAKI-1 renal, with HCC-2998 colon, in the assay on LOX IMVI melanoma, in the assay with MDA-MB-231 breast and in the assay with MDA-N was > 100 µM throughout. For the same compound, the TGI in the assay with SF-295 CNS, with SK-OV-3 ovarian, in the assay with SNB-75 CNS and in the assay on U251 CNS was > 100 µM in each case.
Consider `CCOC(=O)CSc1nc2ccccc2c(=O)n1N`, for which the TGI with BT-549 breast, in the assay with CAKI-1 renal, in the assay on HCC-2998 colon, in the assay on LOX IMVI melanoma, with MDA-MB-231 breast and in the assay with MDA-N was > 100 µM throughout. The TGI in the assay on SF-295 CNS, in the assay on SNB-75 CNS and in the assay with U251 CNS was > 100 µM throughout.
